Assay results as given in patent US10765114B2, “4-amino-6-(pyridyl and 2-substitutedphenyl)-picolinates and 6-amino-2-(pyridyl and 2-substitutedphenyl)-pyrimidine-4-carboxylates and their use as herbicides” (Dow AgroSciences LLC, priority 2013, dated 2020).
Where two headings read alike, the source gives them in different places.

How the values were obtained:
[1] = test system: Key Broadleaf Weed and Crop Species; test: Post-Emergent Test II (Table 5); assay type: in vivo; conditions: post-emergence, 336 h; for pest or weed control at 70 g/ha: application rate 70 (kg ai/ha; footnote: g ai/ha); for pest or weed control at 140 g/ha: application rate 140 (kg ai/ha; footnote: g ai/ha)
Summary of the method: (§1)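 Growth stage at treatment: first or second true leaf. Application: compound in acetone/DMSO diluted into an adjuvant-containing aqueous mix, sprayed at 187 L/ha at several rates. Assessment: visual 0-100% injury at 14 days against untreated plants.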

[2] = test system: Key Grass and Sedge Weeds as well as Grass Crops; test: Post-Emergent Test II (Table 6); assay type: in vivo; conditions: post-emergence, 336 h, 14 days after application; for pest or weed control at 70 g/ha: 70 g ai/ha; for pest or weed control at 140 g/ha: 140 g ai/ha
Summary of the method: as §1

[3] = Abutilon theophrasti, ABUTH: velvetleaf (Abutilon theophrasti), read-out: Visual Growth Reduction (%) 14 Days After Application ABUTH
[4] = Amaranthus retroflexus, AMARE: redroot pigweed (Amaranthus retroflexus), read-out: Visual Growth Reduction (%) 14 Days After Application AMARE
[5] = Brassica napus, BRSSS: oilseed rape, canola (Brassica napus), read-out: Visual Growth Reduction (%) 14 Days After Application BRSSS
[6] = Chenopodium album, CHEAL: lambsquarters (Chenopodium album), read-out: Visual Growth Reduction (%) 14 Days After Application CHEAL
[7] = Euphorbia heterophylla, EPHHL: wild poinsettia (Euphorbia heterophylla), read-out: Visual Growth Reduction (%) 14 Days After Application EPHHL
[8] = Helianthus annuus, HELAN: sunflower (Helianthus annuus), read-out: Visual Growth Reduction (%) 14 Days After Application HELAN
[9] = Viola tricolor, VIOTR: wild pansy (Viola tricolor), read-out: Visual Growth Reduction (%) 14 Days After Application VIOTR
[10] = CYPSS, read-out: Visual Growth Reduction (%) 14 Days After Application CYPSS
[11] = DIGSA: crabgrass (Digitaria sanguinalis), read-out: Visual Growth Reduction (%) 14 Days After Application DIGSA
[12] = ECHSS, read-out: Visual Growth Reduction (%) 14 Days After Application ECHSS
[13] = ORYSS (crop), read-out: Visual Growth Reduction (%) 14 Days After Application ORYSS
[14] = SETFA: giant foxtail (Setaria faberi), read-out: Visual Growth Reduction (%) 14 Days After Application SETFA
[15] = SORVU: grain sorghum (Sorghum vulgare), read-out: Visual Growth Reduction (%) 14 Days After Application SORVU
[16] = TRZSS (crop), read-out: Visual Growth Reduction (%) 14 Days After Application TRZSS
[17] = ZEAMX: maize, corn (Zea mays), read-out: Visual Growth Reduction (%) 14 Days After Application ZEAMX

Structure (SMILES) | pest or weed control at 70 g/ha [1, 3] | pest or weed control at 140 g/ha [1, 3] | pest or weed control at 70 g/ha [1, 5] | pest or weed control at 140 g/ha [1, 5] | pest or weed control at 70 g/ha [1, 6] | pest or weed control at 140 g/ha [1, 6] | pest or weed control at 70 g/ha [1, 7] | pest or weed control at 140 g/ha [1, 7] | pest or weed control at 70 g/ha [1, 8] | pest or weed control at 140 g/ha [1, 8] | pest or weed control at 70 g/ha [1, 9] | pest or weed control at 140 g/ha [1, 9] | pest or weed control at 70 g/ha [2, 10] | pest or weed control at 140 g/ha [2, 10] | pest or weed control at 70 g/ha [2, 11] | pest or weed control at 140 g/ha [2, 11] | pest or weed control at 70 g/ha [2, 12] | pest or weed control at 140 g/ha [2, 12] | pest or weed control at 70 g/ha [2, 13] | pest or weed control at 140 g/ha [2, 13] | also measured
CCc1c(-c2cc(N)c(Cl)c(C(=O)O)n2)ccc(Cl)c1F [Compound 86] | 45 to 59% | 0 to 29% | 75 to 84% | 85 to 94% | 85 to 94% | 85 to 94% | 0 to 29% | 0 to 29% | 75 to 84% | 75 to 84% | 0 to 29% | 0 to 29% | 0 to 29% | 0 to 29% | 0 to 29% | 0 to 29% | 0 to 29% | 0 to 29% | 0 to 29% | 0 to 29% | pest or weed control at 70 g/ha [1, 4]: 85 to 94%; pest or weed control at 140 g/ha [1, 4]: 85 to 94%; pest or weed control at 70 g/ha [2, 14]: 0 to 29%; pest or weed control at 140 g/ha [2, 14]: 0 to 29%; pest or weed control at 70 g/ha [2, 15]: 0 to 29%; pest or weed control at 140 g/ha [2, 15]: 0 to 29%; pest or weed control at 70 g/ha [2, 16]: 0 to 29%; pest or weed control at 140 g/ha [2, 16]: 0 to 29%; pest or weed control at 70 g/ha [2, 17]: 0 to 29%; pest or weed control at 140 g/ha [2, 17]: 0 to 29%; melting point: 144 to 146 °C
COC(=O)c1nc(-c2ccc(C(F)(F)F)nc2C)c(F)c(N)c1Cl [Compound 35] | 0 to 29% | 0 to 29% | 0 to 29% | 0 to 29% | 0 to 29% | 0 to 29% | 0 to 29% | 0 to 29% | 0 to 29% | 0 to 29% | 0 to 29% | 0 to 29% | 0 to 29% | 0 to 29% | 0 to 29% | 0 to 29% | 0 to 29% | 0 to 29% | 0 to 29% | 0 to 29% | pest or weed control at 70 g/ha [1, 4]: 0 to 29%; pest or weed control at 140 g/ha [1, 4]: 0 to 29%; pest or weed control at 70 g/ha [2, 14]: 0 to 29%; pest or weed control at 140 g/ha [2, 14]: 0 to 29%; pest or weed control at 70 g/ha [2, 15]: 0 to 29%; pest or weed control at 140 g/ha [2, 15]: 0 to 29%; pest or weed control at 70 g/ha [2, 16]: 0 to 29%; pest or weed control at 140 g/ha [2, 16]: 0 to 29%; pest or weed control at 70 g/ha [2, 17]: 0 to 29%; pest or weed control at 140 g/ha [2, 17]: 0 to 29%; melting point: 160 °C
COC(=O)c1nc(-c2ccc(Cl)nc2F)nc(N)c1Cl [Compound 94] | 0 to 29% | 30 to 44% | 0 to 29% | 0 to 29% | 60 to 74% | 75 to 84% | 0 to 29% | 0 to 29% | 30 to 44% | 30 to 44% | 0 to 29% | 0 to 29% | 0 to 29% | 0 to 29% | 0 to 29% | 0 to 29% | 0 to 29% | 0 to 29% | 0 to 29% | 0 to 29% | pest or weed control at 70 g/ha [2, 14]: 0 to 29%; pest or weed control at 140 g/ha [2, 14]: 0 to 29%; pest or weed control at 70 g/ha [2, 15]: 0 to 29%; pest or weed control at 140 g/ha [2, 15]: 0 to 29%; pest or weed control at 70 g/ha [2, 16]: 0 to 29%; pest or weed control at 140 g/ha [2, 16]: 0 to 29%; pest or weed control at 70 g/ha [2, 17]: 0 to 29%; pest or weed control at 140 g/ha [2, 17]: 0 to 29%; melting point: 192 to 195 °C
COC(=O)c1nc(-c2ccc(Cl)c(F)c2OC)nc(N)c1OC [Compound 70, Methyl 6-amino-2-(4-chloro-3-fluoro-2-methoxyphenyl)-5-methoxypyrimidine-4-carboxylate] | 85 to 94% | 60 to 74% | 95 to 100% | 95 to 100% | 95 to 100% | 95 to 100% | 0 to 29% | 0 to 29% | 95 to 100% | 95 to 100% | 0 to 29% | 0 to 29% | 0 to 29% | 0 to 29% | 0 to 29% | 0 to 29% | 0 to 29% | 0 to 29% | 0 to 29% | 0 to 29% | pest or weed control at 70 g/ha [1, 4]: 95 to 100%; pest or weed control at 140 g/ha [1, 4]: 95 to 100%; pest or weed control at 70 g/ha [2, 14]: 0 to 29%; pest or weed control at 140 g/ha [2, 14]: 0 to 29%; pest or weed control at 70 g/ha [2, 15]: 0 to 29%; pest or weed control at 140 g/ha [2, 15]: 0 to 29%; pest or weed control at 70 g/ha [2, 16]: 0 to 29%; pest or weed control at 140 g/ha [2, 16]: 0 to 29%; pest or weed control at 70 g/ha [2, 17]: 0 to 29%; pest or weed control at 140 g/ha [2, 17]: 0 to 29%; melting point: 60 to 61 °C
